Test results published in patent US9782424B2, “Synergistic combination comprising avermectins and a NSAID for tumor inhibition” (Ectin Research AB, priority 2011, dated 2017).

Assays:
[1] = test system: prostatic cell line (LNCaP); experiment: XTT-assay proliferation rate, prostatic cell line; assay type: cell-based, human; conditions: for Proliferation rate compared to untreated control: LNCaP (Table 5)
Experimental: (§1) Commercially available human tumor cell lines were purchased from ATCC (ATCC/LGC-standards, Borás, Sweden). […] Briefly, ampoules of frozen cells were thawed by submerging into a 37° C. water bath for 45 s. […] With supernatant discarded, cell pellets were further resuspended with 5 ml complete medium into 25 cm^2 cell culture flasks (Cell+, Sarstedt, Nümbrecht, Germany). Tumor cells were cultured until sub-confluence and further sub-cultured with Trypsin (0.5%), EDTA (0.2%) solution (T4174, TE-10x, Sigma) in sterile sodium chloride. Culture media was changed two-three times a week. Culture flasks (Cell+, Sarstedt, Nümbrecht, Germany) and culture plates (Falcon/BD, Franklin Lakes, N.J., USA) were used for experimental set-ups. Cells were regularly monitored using an inverted microscope connected to a digital photo equipment (Axiovert 25 and Axiovision, Zeiss, Carl Zeiss AG, Germany) (FIG. 1). Described culture techniques and equipment have been used extensively in the laboratory
The proliferation rates of the different human tumor cell lines were studied using a method based on the conversion of a sodium salt (XTT-assay, Sigma) into a stable orange color that could be analyzed in a spectrophotometer. […] The color change was measured using a 96-well plate reader with software to calculate the absorbance at 450 nm (V-max/Softmax Pro, Molecular Devices, USA).
Increasing concentrations of substance ivermectin was added with an 8-channel pipette (Titertek, Kem-En-Tec, Taastrup, Denmark) together with sterile pipette tips (Molecular Bioproducts, San Diego, Calif., USA). Cell cultures including active substances were incubated for 24 hours (and 96 hours). Untreated wells including culture medium only served as untreated controls. The XTT-assay substrate was added and after gentle agitation using a micro plate shaker, absorbencies at 450 and 650 nm were measured. Levels from medium were subtracted and compared with control wells, using culture medium only.

prostate cells (LNCaP) = experiment: Morphology of cultured tumor cells, LNCaP; assay type: cell-based, human; conditions: for Effect on morphology: 24 hours (FIG. 8)
Experimental: as §1
(§2) The effect of Ivermectin, selamectin, abamectin alone, or in combination with ketoconazole, albendazole, ibuprofen, diclofenac and celecoxib on the morphology of cultured human tumor cells was studied. The effect of ivermectin in the presence of increasing concentration of ivermectin was also investigated. Cells were grown into sub-confluence and then sub-cultured into 12 and 24 well plates (Sarstedt, Falcon/BD) for morphology studies, or in 96 well plates (Sarstedt, Falcon/BD) for proliferation studies.

[2] = test system: breast cancer cell line 2R-75-1; experiment: Morphology of cultured tumor cells, ZR-75-1; assay type: cell-based, human; conditions: ivermectin 10e-4 to 10e-10 mol/L (FIG. 2)
Experimental: Commercially available human tumor cell lines were purchased from ATCC (ATCC/LGC-standards, Borás, Sweden). Cell lines from urinary bladder (UM-UC-3, #CRL-1749), colorectal carcinoma (Colo205, #CCL-222 and HT29, #HTB-38), prostate carcinoma (LNCaP, #CRL-1740) and breast carcinoma (ZR-75-1, #CRL-1500) were purchased and stored in liquid nitrogen. Cells were cultured in Roswell Park Memorial Institute media (RPMI-1640) or minimum essential medium with Earl's salts (EMEM) supplemented with 10% Foetal calf serum (FCS, Sigma) and cultured using a 37° C. cell culture incubator (Forma Scientific, NinoLab, Kungsbacka, Sweden) with 5% CO2 humidified atmosphere. Tumor cell lines were handled aseptically using a laminar airflow (LAF) bench (Holten 2448, Ninolab, Sweden) and stored in a liquid nitrogen tank and were initiated in culture as previously described (Falk P. Experimental models of the peritoneal environment: Effects of TGF-beta and Hyaluronan. Göteborg: University of Gothenburg; 2008). Briefly, ampoules of frozen cells were thawed by submerging into a 37° C. water bath for 45 s. Cells were resuspended in 10 ml of preheated RPMI-1640 with 10% FCS and centrifuged in 260 g for 10 min. […] Cells were regularly monitored using an inverted microscope connected to a digital photo equipment (Axiovert 25 and Axiovision, Zeiss, Carl Zeiss AG, Germany) (FIG. 1). […]

[3] = test system: human urinary bladder cancer cells; experiment: Tryphan blue exclusion viability; assay type: cell-based; conditions: compared to untreated medium control (FIG. 3)
Experimental: as §2, with “studies. Viability of urinary bladder cells was studied using the tryphan blue exclusion method (Freshney R. Culture of animal cells: A manual of basic techniques. New York: Alan R Liss Inc; 1987).” for “studies.”

Substance: 22,23-dihydroavermectin B1a+22,23-dihydroavermectin B1b [ivermectin]
- Proliferation rate compared to untreated control ([1]; IVM 1 μmol/L alone): 95.4 ± 0.6%
- Proliferation rate compared to untreated control ([1]; IVM 10 μmol/L alone): 106.4±2.2%
- Proliferation rate compared to untreated control ([1]; IVM 10 μmol/L alone, listed as IVM): 106.4 ± 2.2%
- Proliferation rate compared to untreated control ([1]; IVM 100 μmol/L alone): 45.7 ± 2.2%
- Proliferation rate in per cent compared to untreated medium control ([1]; LNCaP, ivermectin 10e-9 mol/L): 91 ± 4%
- Proliferation rate in per cent compared to untreated medium control ([1]; LNCaP, ivermectin 10e-8 mol/L): 93 ± 5%
- Proliferation rate in per cent compared to untreated medium control ([1]; LNCaP, ivermectin 10e-7 mol/L): 94 ± 5%
- Proliferation rate in per cent compared to untreated medium control ([1]; LNCaP, ivermectin 10e-6 mol/L): 99 ± 4%
- Effect on proliferation rate compared to untreated control ([1]; LNCaP, ivermectin 100 μM alone or in combination): reduced the proliferation rate
- Proliferation rate in per cent compared to untreated medium control ([1]; LNCaP, ivermectin 10e-4 mol/L): 8±1%
- Effect on morphology (prostate cells (LNCaP); ivermectin 100 μM): affected
- Morphological effects over the concentration series (prostate cells (LNCaP); ivermectin 10e-4 to 10e-10 mol/L (FIG. 2)): affected by the highest concentration 10e-4 mol/L only
- Effect on morphology (prostate cells (LNCaP); ivermectin 1 and 10 μM): No effect
- Morphological effects over the concentration series [2]: affected by the highest concentration 10e-4 mol/L only
- Tryphan blue exclusion (viability) [3]: affected cells in a dose-dependent manner
